# In patent US12478617B2, “Lipidated peptide inhibitors of interleukin-23 receptor” (JANSSEN BIOTECH, INC., priority 2021, dated 2025):
# Read-outs that look alike come from different tables or passages of the source.
# Details: disulfide bond, 20-membered ring, I2/AcOH, ACN/H2O
compound,measurement,setting,value
CC(=O)NCCCC[C@@H]1NC(=O)[C@H](Cc2c[nH]c3c(C)cccc23)NC(=O)[C@H]([C@@H](C)O)NC(=O)[C@H](CC(N)=O)NC(=O)[C@@H](NC(=O)[C@@H](CCCNC(=N)N)NC(C)=O)C(C)(C)SSC(C)(C)[C@@H](C(=O)N[C@@H](Cc2ccc(OCCN)cc2)C(=O)N[C@@H](Cc2ccc3ccccc3c2)C(=O)NC2(C(=O)N[C@@H](CCC(=O)O)C(=O)N[C@@H](CC(N)=O)C(=O)N[C@@H](Cc3cccnc3)C(=O)N(C)[C@@H](CCCCNC(=O)COCCOCCNC(=O)COCCOCCNC(=O)CC[C@H](NC(=O)CCCCCCCCCCCCCCCCC(=O)O)C(=O)O)C(N)=O)CCOCC2)NC1=O,"ring closure, yield after HPLC","from Ac-dArg-Pen-Asn-Thr-7MeTrp-Lys(Ac)-Pen-AEF-2Nal-THP-Glu-Asn-3Pya-MeLys(PEG2PEG2gEC18OH)-NH2, […]",11%
CCCCCCCCCCCCCCCC(=O)N[C@@H](CCC(=O)NCCCC[C@H](NC(=O)C1(NC(=O)[C@H](Cc2ccc3ccccc3c2)NC(=O)[C@H](Cc2ccc(OCCN)cc2)NC(=O)[C@H]2NC(=O)[C@H](CCCCNC(C)=O)NC(=O)[C@H](Cc3c[nH]c4c(C)cccc34)NC(=O)[C@H]([C@@H](C)O)NC(=O)[C@H](CC(N)=O)NC(=O)[C@@H](NC(=O)[C@@H](CCCCNC(=O)COCCOCCNC(=O)COCCOCCNC(=O)CC[C@H](NC(=O)CCCCCCCCCCCCCCC(=O)O)C(=O)O)NC(C)=O)C(C)(C)SSC2(C)C)CCOCC1)C(=O)N[C@@H](CC(N)=O)C(=O)N[C@@H](Cc1cccnc1)C(=O)N(C)CC(N)=O)C(=O)O,"ring closure, yield after HPLC","from Ac-dLys(PEG2PEG2gEC16OH)-Pen-Asn-Thr-7MeTrp-Lys(Ac)-Pen-AEF-2Nal-THP-Lys(gEC16)-Asn-3Pya-Sar-NH2, 1.62 mM",13%
CC(=O)NCCCC[C@@H]1NC(=O)[C@H](Cc2c[nH]c3c(C)cccc23)NC(=O)[C@H]([C@@H](C)O)NC(=O)[C@H](CC(N)=O)NC(=O)[C@@H](NC(=O)[C@@H](CCCCNC(=O)COCCOCCNC(=O)COCCOCCNC(=O)CC[C@H](NC(=O)CCCCCCCCCCCCCCCCC(=O)O)C(=O)O)NC(C)=O)C(C)(C)SSC(C)(C)[C@@H](C(=O)N[C@@H](Cc2ccc(OCCN)cc2)C(=O)N[C@@H](Cc2ccc3ccccc3c2)C(=O)NC2(C(=O)N[C@@H](CCCCNC(C)=O)C(=O)N[C@@H](CC(N)=O)C(=O)N[C@@H](Cc3cccnc3)C(=O)N(CC(N)=O)Cc3ccc(C(N)=O)cc3)CCOCC2)NC1=O,"ring closure, yield after HPLC","from Ac-dLys(PEG2PEG2gEC18OH)-Pen-Asn-Thr-7MeTrp-Lys(Ac)-Pen-AEF-2Nal-THP-Lys(Ac)-Asn-3Pya-N(4AmBenzyl)Gly-NH2, 1.72 mM",26.8%
MeCO-k(PEG2PEG2gE(c)C180H)-Pen*-N-T-7MeW-K(Ac)-Pen*-AEF-2Nal-THP—K(Ac)-N-3Pya-Sar-CONH2,"ring closure, yield after HPLC","ascorbic acid quench, 0.34 mM",20%
CC(=O)NCCCC[C@@H]1NC(=O)[C@H](Cc2c[nH]c3c(C)cccc23)NC(=O)[C@H]([C@@H](C)O)NC(=O)[C@H](CC(N)=O)NC(=O)[C@@H](NC(C)=O)C(C)(C)SSC(C)(C)[C@@H](C(=O)N[C@@H](Cc2ccc(OCCN)cc2)C(=O)N[C@@H](Cc2ccc3ccccc3c2)C(=O)NC2(C(=O)N[C@@H](CCCCNC(=O)COCCOCCNC(=O)COCCOCCNC(=O)CC[C@H](NC(=O)CCCCCCCCCCCCCCCCC(=O)O)C(=O)O)C(=O)N[C@@H](CC(N)=O)C(=O)N[C@@H](Cc3cccnc3)C(=O)N(C)CC(N)=O)CCOCC2)NC1=O,"ring closure, yield after HPLC","from Ac-Pen-Asn-Thr-7MeTrp-Lys(Ac)-Pen-AEF-2Nal-THP-Lys(PEG2PEG2gEC18OH)-Asn-3Pya-Sar-NH2, 0.382 mM",24%
CC(=O)NCCCC[C@@H]1NC(=O)[C@H](Cc2c[nH]c3c(C)cccc23)NC(=O)[C@H]([C@@H](C)O)NC(=O)[C@H](CC(N)=O)NC(=O)[C@@H](NC(=O)[C@@H](CCCNC(=N)N)NC(C)=O)C(C)(C)SSC(C)(C)[C@@H](C(=O)N[C@@H](Cc2ccc(OCCNC(=O)COCCOCCNC(=O)COCCOCCNC(=O)CC[C@H](NC(=O)CCCCCCCCCCCCCCCCC(=O)O)C(=O)O)cc2)C(=O)N[C@@H](Cc2ccc3ccccc3c2)C(=O)NC2(C(=O)N[C@@H](CCCCNC(C)=O)C(=O)N[C@@H](CC(N)=O)C(=O)N[C@@H](Cc3cccnc3)C(=O)N(C)CC(N)=O)CCOCC2)NC1=O,"ring closure, yield after HPLC","from Ac-dArg-Pen-Asn-Thr-7MeTrp-Lys(Ac)-Pen-AEF(PEG2PEG2gEC18OH)-2Nal-THP-Lys(Ac)-Asn-3Pya-Sar-NH2, 0.355 mM",10%
